Patent publication US20210022305A1, “A HUMULUS PLANT VARIANT AND EXTRACTS THEREOF” (BOMI LLC, priority 2018, published 2021)

Test system: VIC cells
Assay: VIC calcification reduction (Alizarin Red S nodule number and area)
Type: cell-based, porcine
Method: VIC Isolation and Culture. VICs were isolated from porcine aortic valve leaflets (Hormel, Austin, Minn.) by collagenase digestion and subsequently cultured in growth medium (15% FBS, 2 mM L-glutamine, 100 U/ml penicillin, and 100 µg/ml streptomycin in medium 199) at 37° C., 5% CO2 for two to four passages. VICs used in all experiments were seeded at a density of 50,000 cells/cm^2 onto 24-well or 96-well plates. During the experiments, the VICs were cultured in low-serum medium (1% FBS, 100 U/ml penicillin, 100 µg/ml streptomycin, 2 mM L-glutamine, in medium 199), and the medium was changed each day until the fifth day.
Culture Substrate Coatings. Tissue culture polystyrene (TCPS) plates (24-well or 96-well) were coated with type I collagen (Coll) (Inamed Biomaterials, Fremont, Calif.; […]), fibronectin (FN, 5 g/cm^2), fibrin (FB, […]), or left untreated (TCPS). For the FB coating, plates were first incubated overnight at 4° C. in fibrinogen (1 mg/mL), followed by three washes with 0.05% Tween 20 in phosphate-buffered saline (PBS) and 1 hour incubation with thrombin (0.6 mg/ml) at 37° C. (Gu et al., “Role of the MAPK/ERK Pathway in Valvular Interstitial Cell Calcification,” American Journal of Physiology—Heart and Circulatory Physiology 296(6):H1748-H1757 (2009), which is hereby incorporated by reference in its entirety). All coatings were prepared in 50 mM bicarbonate coating buffer, pH 8.5, and rinsed three times with PBS before cell seeding. The amounts of adsorbed proteins were measured on separate plates using the bicinchoninic acid protein assay (Pierce, Rockford, Ill.) to verify adsorption of protein coatings.
Quantification of Nodule Number and Size. After 5 days of culture in the presence or absence of U-0126 or PD-98059, VIC cultures were stained with Alizarin Red S (ARS) to facilitate quantification of calcified nodules, as ARS stains mineralized deposits red. Cultures were fixed with 10% neutral buffered formalin, stored at 4° C. overnight, and stained with a 2% solution of ARS in PBS. Positively stained nodules were manually counted under a microscope (Olympus IX51 with Hamamatsu 285 digital camera and Simple PCI digital imaging software; Compix, Imaging Systems, Cranberry Township, Pa.). Nodule size was measured using ImageJ software (National Institutes of Health), and photomicrographs were captured under 40 and 100 magnifications.
Multiplate wells containing calcifying VICs from 27 different tissue samples were treated with CBD of 8 different bioactivities, and 5 different mg concentrations, or left untreated. Average calcification was computed using the number of nodules per well, and the average area per nodule. Average total nodule area for untreated wells was 3.27 mm^2 (SD=0.32, min=0.5, max=4.0) per well. All reported percent reductions in calcification were computed by dividing average nodule area of treated wells from 3.27 mm^2. CBD samples were clustered according to their bioactivity levels around the values, 0.20, 0.30, 0.50, 0.60, 0.70, 0.80, 0.90, and 0.95. Mg dosages of 5, 10, 25, 40, and 100 were examined.
Culture Substrate Coatings. Tissue culture polystyrene (TCPS) plates (24-well or 96-well) were coated with type I collagen (Coll) (Inamed Biomaterials, Fremont, Calif.; […]), fibronectin (FN, 5 g/cm^2), fibrin (FB, 1.5 g/cm^2), or left untreated (TCPS). For the FB coating, plates were first incubated overnight at 4° C. in fibrinogen (1 mg/mL), followed by three washes with 0.05% Tween 20 in phosphate-buffered saline (PBS) and 1 hour incubation with thrombin (0.6 mg/mL) at 37° C. All coatings were prepared in 50 mM bicarbonate coating buffer, pH 8.5, and rinsed three times with PBS before cell seeding. The amounts of adsorbed proteins were measured on separate plates using the bicinchoninic acid protein assay (Pierce, Rockford, Ill.) to verify adsorption of protein coatings. […]

[1] = Example 4, 5 mg, CBD = 0.95 bioactivity
[2] = Example 4, 10 mg, CBD = 0.95 bioactivity
[3] = Example 4, 25 mg, CBD = 0.95 bioactivity
[4] = Example 4, 40 mg, CBD = 0.95 bioactivity
[5] = Example 4, 100 mg, CBD = 0.95 bioactivity

Structure (SMILES): C=C(C)C1CCC(C)=CC1c1c(O)cc(CCCCC)cc1O (stereo not drawn) [CBD, 2-(6-isopropenyl-3-methyl-2-cyclohexen-l-yl)-5-pentyl-1,3-benzenediol]
- Calcification reduction, M (5 mg, bioactivity .20): 5.17%
- Calcification reduction, Max (5 mg, bioactivity .20): 6.9%
- Calcification reduction, Min (5 mg, bioactivity .20): 3.8%
- Calcification reduction, M (5 mg, bioactivity .30): 6.16%
- Calcification reduction, Max (5 mg, bioactivity .30): 7.3%
- Calcification reduction, Min (5 mg, bioactivity .30): 5.2%
- Calcification reduction, M (5 mg, bioactivity .50): 7.63%
- Calcification reduction, Max (5 mg, bioactivity .50): 9.1%
- Calcification reduction, Min (5 mg, bioactivity .50): 5.3%
- Calcification reduction, M (5 mg, bioactivity .60): 7.99%
- Calcification reduction, Max (5 mg, bioactivity .60): 10.4%
- Calcification reduction, Min (5 mg, bioactivity .60): 6.2%
- Calcification reduction, M (5 mg, bioactivity .70): 10.06%
- Calcification reduction, Max (5 mg, bioactivity .70): 13.6%
- Calcification reduction, Min (5 mg, bioactivity .70): 7.3%
- Calcification reduction, M (5 mg, bioactivity .80): 14.32%
- Calcification reduction, Max (5 mg, bioactivity .80): 16.6%
- Calcification reduction, Min (5 mg, bioactivity .80): 11.3%
- Calcification reduction, M (5 mg, bioactivity .90): 18.06%
- Calcification reduction, Max (5 mg, bioactivity .90): 21%
- Calcification reduction, Min (5 mg, bioactivity .90): 14.6%
- Calcification reduction, M (5 mg, bioactivity .95): 19.42%
- Calcification reduction, Max (5 mg, bioactivity .95): 22.1%
- Calcification reduction, Min (5 mg, bioactivity .95): 15.4%
- Calcification reduction, M (10 mg, bioactivity .20): 4.95%
- Calcification reduction, Max (10 mg, bioactivity .20): 6.2%
- Calcification reduction, Min (10 mg, bioactivity .20): 3.7%
- Calcification reduction, M (10 mg, bioactivity .30): 6.24%
- Calcification reduction, Max (10 mg, bioactivity .30): 7.5%
- Calcification reduction, Min (10 mg, bioactivity .30): 4.9%
- Calcification reduction, M (10 mg, bioactivity .50): 9.77%
- Calcification reduction, Max (10 mg, bioactivity .50): 11.7%
- Calcification reduction, Min (10 mg, bioactivity .50): 7.7%
- Calcification reduction, M (10 mg, bioactivity .60): 11.8%
- Calcification reduction, Max (10 mg, bioactivity .60): 14.3%
- Calcification reduction, Min (10 mg, bioactivity .60): 9.2%
- Calcification reduction, M (10 mg, bioactivity .70): 14.33%
- Calcification reduction, Max (10 mg, bioactivity .70): 17.2%
- Calcification reduction, Min (10 mg, bioactivity .70): 10.2%
- Calcification reduction, M (10 mg, bioactivity .80): 20.03%
- Calcification reduction, Max (10 mg, bioactivity .80): 24.6%
- Calcification reduction, Min (10 mg, bioactivity .80): 15.9%
- Calcification reduction, M (10 mg, bioactivity .90): 25.04%
- Calcification reduction, Max (10 mg, bioactivity .90): 30.3%
- Calcification reduction, Min (10 mg, bioactivity .90): 20.5%
- Calcification reduction, M (10 mg, bioactivity .95): 25.56%
- Calcification reduction, Max (10 mg, bioactivity .95): 32.5%
- Calcification reduction, Min (10 mg, bioactivity .95): 18.5%
- Calcification reduction, M (25 mg, bioactivity .20): 6.07%
- Calcification reduction, Max (25 mg, bioactivity .20): 7.1%
- Calcification reduction, Min (25 mg, bioactivity .20): 4.8%
- Calcification reduction, M (25 mg, bioactivity .30): 6.23%
- Calcification reduction, Max (25 mg, bioactivity .30): 8.1%
- Calcification reduction, Min (25 mg, bioactivity .30): 4.6%
- Calcification reduction, M (25 mg, bioactivity .50): 10.89%
- Calcification reduction, Max (25 mg, bioactivity .50): 12.5%
- Calcification reduction, Min (25 mg, bioactivity .50): 9.5%
- Calcification reduction, M (25 mg, bioactivity .60): 13.75%
- Calcification reduction, Max (25 mg, bioactivity .60): 15.3%
- Calcification reduction, Min (25 mg, bioactivity .60): 10.5%
- Calcification reduction, M (25 mg, bioactivity .70): 16.55%
- Calcification reduction, Max (25 mg, bioactivity .70): 18.6%
- Calcification reduction, Min (25 mg, bioactivity .70): 14.3%
- Calcification reduction, M (25 mg, bioactivity .80): 24.94%
- Calcification reduction, Max (25 mg, bioactivity .80): 30.3%
- Calcification reduction, Min (25 mg, bioactivity .80): 20.2%
- Calcification reduction, M (25 mg, bioactivity .90): 30.51%
- Calcification reduction, Max (25 mg, bioactivity .90): 35.6%
- Calcification reduction, Min (25 mg, bioactivity .90): 23.5%
- Calcification reduction, M (25 mg, bioactivity .95): 32.69%
- Calcification reduction, Max (25 mg, bioactivity .95): 42.6%
- Calcification reduction, Min (25 mg, bioactivity .95): 26.3%
- Calcification reduction, M (40 mg, bioactivity .20): 5.19%
- Calcification reduction, Max (40 mg, bioactivity .20): 6.9%
- Calcification reduction, Min (40 mg, bioactivity .20): 3.6%
- Calcification reduction, M (40 mg, bioactivity .30): 7.13%
- Calcification reduction, Max (40 mg, bioactivity .30): 8.1%
- Calcification reduction, Min (40 mg, bioactivity .30): 5.1%
- Calcification reduction, M (40 mg, bioactivity .50): 14.2%
- Calcification reduction, Max (40 mg, bioactivity .50): 17.1%
- Calcification reduction, Min (40 mg, bioactivity .50): 12%
- Calcification reduction, M (40 mg, bioactivity .60): 19.23%
- Calcification reduction, Max (40 mg, bioactivity .60): 21.9%
- Calcification reduction, M (40 mg, bioactivity .70): 24.7%
- Calcification reduction, Max (40 mg, bioactivity .70): 33%
- Calcification reduction, Min (40 mg, bioactivity .70): 18.9%
- Calcification reduction, M (40 mg, bioactivity .80): 28.54%
- Calcification reduction, Max (40 mg, bioactivity .80): 34.6%
- Calcification reduction, Min (40 mg, bioactivity .80): 22.4%
- Calcification reduction, M (40 mg, bioactivity .90): 40.09%
- Calcification reduction, Max (40 mg, bioactivity .90): 44.6%
- Calcification reduction, Min (40 mg, bioactivity .90): 33.7%
- Calcification reduction, M (40 mg, bioactivity .95): 42.98%
- Calcification reduction, Max (40 mg, bioactivity .95): 54.5%
- Calcification reduction, Min (40 mg, bioactivity .95): 35.8%
- Calcification reduction, M (100 mg, bioactivity .20): 6.1%
- Calcification reduction, Max (100 mg, bioactivity .20): 7.5%
- Calcification reduction, Min (100 mg, bioactivity .20): 5.2%
- Calcification reduction, M (100 mg, bioactivity .30): 7.2%
- Calcification reduction, Max (100 mg, bioactivity .30): 8.4%
- Calcification reduction, Min (100 mg, bioactivity .30): 6%
- Calcification reduction, M (100 mg, bioactivity .50): 16.1%
- Calcification reduction, Max (100 mg, bioactivity .50): 18.1%
- Calcification reduction, Min (100 mg, bioactivity .50): 14.1%
- Calcification reduction, M (100 mg, bioactivity .60): 21.54%
- Calcification reduction, Max (100 mg, bioactivity .60): 23.7%
- Calcification reduction, Min (100 mg, bioactivity .60): 18.3%
- Calcification reduction, M (100 mg, bioactivity .70): 30.71%
- Calcification reduction, Max (100 mg, bioactivity .70): 35.6%
- Calcification reduction, Min (100 mg, bioactivity .70): 25.8%
- Calcification reduction, M (100 mg, bioactivity .80): 37.74%
- Calcification reduction, Max (100 mg, bioactivity .80): 44.4%
- Calcification reduction, Min (100 mg, bioactivity .80): 31.7%
- Calcification reduction, M (100 mg, bioactivity .90): 48.52%
- Calcification reduction, Max (100 mg, bioactivity .90): 54.7%
- Calcification reduction, Min (100 mg, bioactivity .90): 37.6%
- Calcification reduction, M (100 mg, bioactivity .95): 55%
- Calcification reduction, Max (100 mg, bioactivity .95): 66.1%
- Calcification reduction, Min (100 mg, bioactivity .95): 41.9%
- Calcification reduction, M [1]: 19.42%
- Calcification reduction, Max [1]: 22.1%
- Calcification reduction, Min [1]: 15.4%
- Calcification reduction, M [2]: 25.56%
- Calcification reduction, Max [2]: 32.5%
- Calcification reduction, Min [2]: 18.5%
- Calcification reduction, M [3]: 32.69%
- Calcification reduction, Max [3]: 42.6%
- Calcification reduction, Min [3]: 26.3%
- Calcification reduction, M [4]: 42.98%
- Calcification reduction, Max [4]: 54.5%
- Calcification reduction, Min [4]: 35.8%
- Calcification reduction, M [5]: 55%
- Calcification reduction, Max [5]: 66.1%
- Calcification reduction, Min [5]: 41.9%
